Source: patent US20260193268A1, “TRICYCLIC PI3Ka INHIBITOR, PREPARATION METHOD THEREFOR, AND PHARMACEUTICAL USE THEREOF” (WIGEN BIOMEDICINE TECHNOLOGY (SHANGHAI) CO., LTD., priority 2022, published 2026)
Like-named read-outs stand apart in the source and are kept apart here.

Key:
[1] = system: MCF-7 cells (with PI3Kα E545K mutation); assay: In vitro inhibition of MCF-7 cell proliferation (CellTiter-Lumi); type: cell-based; details: Homo sapiens, MCF7, 144 h
Procedure: Biological Example 3. Assay for In Vitro Inhibition of MCF-7 Cell Proliferation by Compounds of the Present Disclosure
MCF-7 cells (with PI3Kα E545K mutation) were seeded into a 384-well plate (Fisher 142762) at 2000 cells per well. The next day, serially diluted compounds were added, and 144 h after the addition, CellTiter-Lumi (Beyotime C0068XL) was added to measure the ATP content in the cells. The growth of the cells was evaluated, and the IC50 for the inhibition of cell growth by the compounds was calculated.

[2] = system: HCC1954 cells (with PI3Kα H1047R mutation); assay: In vitro inhibition of HCC1954 cell proliferation (CellTiter-Lumi); type: cell-based; details: Homo sapiens, HCC1954, 144 h
Procedure: Assay for In Vitro Inhibition of HCC1954 Cell Proliferation by Compounds of the Present Disclosure
The growth of the cells was evaluated, and the IC50 for the inhibition of cell growth by the compounds was calculated.

[3] = class symbols, read-out: Inhibitory activity against MCF-7 cells (IC50), class symbols
[4] = HCC1954 cells, 144 h, CellTiter-Lumi, class symbols, read-out: Inhibitory activity against HCC1954 cells (IC50), class symbols
[5] = numeric values, read-out: Inhibitory activity against MCF-7 cells (IC50)
[6] = HCC1954 cells, 144 h, CellTiter-Lumi, numeric values, read-out: Inhibitory activity against HCC1954 cells (IC50)

IC50 [1, 3] [µM] | IC50 [2, 4] [µM] | IC50 [1, 5] [µM] | IC50 [2, 6] [µM] | Structure (SMILES) | IC50 ([2]; read-out: Inhibitory activity against HCC1954 cells (IC50)) [µM]
< 0.05 | < 0.05 | – | – | CN(C1COC1)C(C)(C)C=C(C#N)C(=O)Nc1ccc(N2CC(N3CCN(c4ccc5c(c4)-c4nc(N6C(=O)OC[C@H]6C(F)F)cn4CCO5)CC3)C2)c(Cl)c1 [Compound 352] | –
– | – | 0.035 | 0.121 | CN(C)C(C)(C)C=C(C#N)C(=O)Nc1ccc(N2CC(N3CCN(c4ccc5c(c4)-c4nc(N6C(=O)OC[C@H]6C(F)F)cn4CCO5)CC3)C2)cc1 [Compound 150] | –
< 0.05 | < 0.05 | – | – | CC(C)(C=C(C#N)C(=O)Nc1ccc(N2CC(N3CCN(c4ccc5c(c4)-c4nc(N6C(=O)OC[C@H]6C(F)F)cn4CCO5)CC3)C2)cc1)NCCO [Compound 383] | –
< 0.05 | < 0.05 | – | – | CC=C(C#N)C(=O)Nc1ccc(N2CC(N3CCN(c4ccc5c(c4)-c4nc(N6C(=O)OC[C@H]6C(F)F)cn4CCO5)CC3)C2)nc1 [Compound 254] | –
< 0.05 | < 0.05 | – | – | Cc1nc(-c2cn3c(n2)-c2cc(N4CCN(C5CN(c6ccc(NC(=O)C(C#N)=CC(C)(C)NC(=O)OC(C)(C)C)cc6Cl)C5)CC4)ccc2OCC3)n(C(C)C)n1 [Compound 373] | –
< 0.05 | < 0.05 | – | – | CC(C)(C=C(C#N)C(=O)Nc1ccc(N2CC(N3CCN(c4ccc5c(c4)-c4nc(N6C(=O)OC[C@H]6C(F)F)cn4CCO5)CC3)C2)cc1)NCC1COC1 [Compound 381] | –
– | – | 0.021 | 0.219 | C=CC(=O)Nc1ccc(N2CCC3(CC2)CCN(c2ccc4c(c2)-c2nc(N5C(=O)OC[C@H]5C(F)F)cn2CCO4)CC3)cc1 [Compound 183] | –
– | – | 0.0012 | 0.0094 | C=CC(=O)N1CCc2c1ccc(N1CC(N3CCN(c4ccc5c(c4)-c4nc(N6C(=O)OC[C@H]6C(F)F)cn4CCO5)CC3)C1)c2F [Compound 166] | –
< 0.05 | < 0.05 | – | – | CC(C)(C)C=C(C#N)C(=O)Nc1ccc(N2CC(N3CCN(c4ccc5c(c4)-c4nc(N6C(=O)OC[C@H]6C(F)F)c(C6CC6)n4CCO5)CC3)C2)cc1 [Compound 322] | –
< 0.05 | < 0.05 | – | – | Cc1nc(-c2cn3c(n2)-c2cc(N4CCN(C5CN(c6ccc(NC(=O)C(C#N)=CC(C)(C)N(C)C7COC7)cc6)C5)CC4)ccc2OCC3)n(C(C)C)n1 [Compound 339] | –
< 0.05 | < 0.05 | – | – | CC(C)(C)C=C(C#N)C(=O)Nc1cnc(N2CC(N3CCN(c4ccc5c(c4)-c4nc(N6C(=O)OC[C@H]6C(F)F)cn4CCO5)CC3)C2)nc1 [Compound 259] | –
– | – | 0.016 | 0.042 | N#CC(=CC1CC1)C(=O)Nc1ccc(N2CC(N3CCN(c4ccc5c(c4)-c4nc(N6C(=O)OC[C@H]6C(F)F)cn4CCO5)CC3)C2)cc1 [Compound 278] | –
< 0.05 | < 0.05 | – | – | C=CC(=O)Nc1cnc(N2CC(N3CCN(c4ccc5c(c4)-c4nc(N6C(=O)OC[C@H]6C(F)F)cn4CCO5)CC3)C2)cc1C [Compound 217] | –
< 0.05 | < 0.05 | – | – | CC(C)(C)C=C(C#N)C(=O)Nc1ccc(N2CC(N3CCN(c4ccc5c(c4)-c4nc(N6C(=O)OC[C@H]6C(F)F)cn4CCO5)CC3)C2)nc1 [Compound 241] | –
– | – | 0.0001 | 0.0012 | C=CC(=O)Nc1ccc(N2CC(N3CCN(c4ccc5c(c4)-c4nc(N6C(=O)OC[C@H]6C(F)F)cn4CCO5)CC3)C2)cc1Cl [Compound 194] | –
< 0.05 | < 0.05 | – | – | CN(C1COC1)C(C)(C)C=C(C#N)C(=O)Nc1ccc(N2CC(N3CCN(c4ccc5c(c4)-c4nc(N6C(=O)OC[C@H]6C(F)F)cn4CCO5)CC3)C2)nc1 [Compound 238] | –
< 0.05 | < 0.05 | – | – | CN(C1COC1)C(C)(C)C=C(C#N)C(=O)Nc1ccc(N2CC(N3CCN(c4ccc5c(c4)-c4nc(N6C(=O)OC[C@H]6C(F)F)cn4CCO5)CC3)C2)cc1Cl [Compound 361] | –
– | – | 0.0002 | 0.0034 | C=CC(=O)Nc1ccc(N2CC(N3CCN(c4ccc5c(c4)-c4nc(N6C(=O)OC[C@H]6C(F)F)cn4CCO5)CC3)C2)c(OC)c1 [Compound 280] | –
– | – | 0.003 | 0.053 | C=CC(=O)N1CCn2nc(N3CC(N4CCN(c5ccc6c(c5)-c5nc(N7C(=O)OC[C@H]7C(F)F)cn5CCO6)CC4)C3)cc2C1 [Compound 164] | –
– | – | 0.0005 | 0.0029 | C=CC(=O)Nc1ccc(N2CC(N3CCN(c4ccc5c(c4)-c4nc(N6C(=O)OC[C@H]6C(F)F)cn4CCO5)CC3)C2)nn1 [Compound 161] | –

More lines, now with the values behind:

Structure (SMILES) | IC50 [1, 3] [µM] | IC50 [2, 4] [µM] | IC50 [1, 5] [µM] | IC50 [2, 6] [µM] | IC50 ([2]; read-out: Inhibitory activity against HCC1954 cells (IC50)) [µM]
C=CC(=O)Nc1ccc(N2CC(N3CCN(c4ccc5c(c4)-c4nc(N6C(=O)OC[C@H]6C(F)F)cn4CCO5)CC3)C2)c(C)c1 [Compound 129] | – | – | 0.0003 | 0.0069 | –
C=CC(=O)Nc1ccc(N2CC(N3CCN(c4ccc5c(c4)-c4nc(N6C(=O)OC[C@H]6C)cn4CCO5)CC3)C2)cc1 [Compound 131] | – | – | 0.015 | 0.084 | –
CC(C)(C=C(C#N)C(=O)Nc1ccc(N2CC(N3CCN(c4ccc5c(c4)-c4nc(N6C(=O)OC[C@H]6C(F)F)cn4CCO5)CC3)C2)cc1)N1CC2(COC2)C1 [Compound 141] | – | – | 0.0006 | 0.0067 | –
C=CC(=O)Nc1ccc(N2CCC3(CCN(c4ccc5c(c4)-c4nc(N6C(=O)OC[C@H]6C(F)F)cn4CCO5)CC3)C2)cc1 [Compound 94] | – | – | 0.076 | 0.3 | –
C=CC(=O)N1CC(N2CCC(N3CCN(c4ccc5c(c4)-c4nc(N6C(=O)OC[C@H]6C(F)F)cn4CCO5)CC3)C2)C1 (stereo partly shown) [Compound 90] | – | – | 0.012 | 0.225 | –
C=CC(=O)N1CC[C@@H](C(=O)N2CC3(CCN(c4ccc5c(c4)-c4nc(N6C(=O)OC[C@H]6C(F)F)cn4CCO5)CC3)C2)C1 [Compound 21] | – | – | 0.023 | 0.251 | –
C=CC(=O)N1CCC(N2CCC(N3CCN(c4ccc5c(c4)-c4nc(N6C(=O)OC[C@H]6C(F)F)cn4CCO5)CC3)CC2)CC1 [Compound 10] | – | – | 0.146 | > 1 | –
C=CC(=O)Nc1ccc(N2CC(N3CCC4(c5ccc6c(c5)-c5nc(N7C(=O)OC[C@H]7C(F)F)cn5CCO6)CC4C3)C2)cc1 (stereo partly shown) [Compound 107] | – | – | 0.016 | – | 0.131
C=CC(=O)Nc1ccc(N2CCC(N3CCN(c4ccc5c(c4)-c4nc(N6C(=O)OC[C@H]6C(F)F)cn4CCO5)CC3)C2)cc1 (single isomer, unassigned) [Compound 29] | – | – | 0.013 | 0.075 | –
C=CC(=O)Nc1ccc(N2CC(N3CCN(c4ccc5c(c4)-c4nc(N6C(=O)OC[C@H]6C(F)F)cn4CCO5)CC3)C2)cn1 [Compound 121] | – | – | 0.0002 | 0.003 | –
C=CC(=O)Nc1ccc(N2CC(N3CCN(c4ccc5c(c4)-c4nc(N6C(=O)OC[C@H]6C(F)F)cn4CCO5)CC3)C2)cc1C [Compound 139] | – | – | 0.0006 | 0.0067 | –
C=CC(=O)Nc1ccc(CN2CC3(C2)CN(c2ccc4c(c2)-c2nc(N5C(=O)OC[C@H]5C(F)F)cn2CCO4)C3)cc1 [Compound 40] | – | – | 0.034 | 0.162 | –
CN(C)C/C=C/C(=O)Nc1ccc(N2CC(N3CCN(c4ccc5c(c4)-c4nc(N6C(=O)OC[C@H]6C(F)F)cn4CCO5)CC3)C2)cn1 [Compound 148] | – | – | 0.0002 | 0.01 | –
C=CC(=O)Nc1ccc(N2CC[C@@H](CN3CCN(c4ccc5c(c4)-c4nc(N6C(=O)OC[C@H]6C(F)F)cn4CCO5)CC3)C2)cc1 [Compound 85] | – | – | 0.088 | 0.303 | –
C=C(C)C(=O)Nc1ccc(N2CC(N3CCN(c4ccc5c(c4)-c4nc(N6C(=O)OC[C@H]6C(F)F)cn4CCO5)CC3)C2)cc1 [Compound 100] | – | – | 0.022 | 0.066 | –
